# Test: method code SF, from Recanatgini, M.; Leoni, A.; Baraldi, G. (1991). Partition coefficients of 3-methyl-4-nitropyrazole-5-carboxamides. 16, 127-130.
# Conditions: not given
row,logP,Compound
1,2.34,Cc1ccc(NC(=O)c2[nH]nc(C)c2[N+](=O)[O-])cc1

# Same assay, conditions: pH 1.0
row,Compound,logD
1,Cc1n[nH]c(C(=O)NCc2ccccc2)c1[N+](=O)[O-],1.49
2,Cc1n[nH]c(C(N)=O)c1[N+](=O)[O-],-0.38
3,Cc1n[nH]c(C(=O)NC2CCCCC2)c1[N+](=O)[O-],1.71
4,Cc1n[nH]c(C(=O)N2CCCCCC2)c1[N+](=O)[O-],1.15
5,Cc1n[nH]c(C(=O)N2CCCC2)c1[N+](=O)[O-],0.25
6,CCNC(=O)c1n[nH]c(C)c1[N+](=O)[O-],0.13
7,Cc1[nH]nc(C(=O)NC2CC2)c1[N+](=O)[O-],0.25
8,Cc1[nH]nc(C(=O)N2CCCCC2)c1[N+](=O)[O-],0.79
9,Cc1n[nH]c(C(=O)N(C)Cc2ccccc2)c1[N+](=O)[O-],1.65

# Further lines, results first:
row,logD,Compound
1,2.83,Cc1n[nH]c(C(=O)NC23CC4CC(CC(C4)C2)C3)c1[N+](=O)[O-]
2,3.48,CCCCCCCCNC(=O)c1[nH]nc(C)c1[N+](=O)[O-]
3,0.65,CCCNC(=O)c1[nH]nc(C)c1[N+](=O)[O-]
4,1.68,Cc1n[nH]c(C(=O)N(C)C2CCCCC2)c1[N+](=O)[O-]
5,1.24,Cc1n[nH]c(C(=O)NC2CCCC2)c1[N+](=O)[O-]
6,1.82,Cc1n[nH]c(C(=O)NCCc2ccccc2)c1[N+](=O)[O-]
7,-0.23,CNC(=O)c1n[nH]c(C)c1[N+](=O)[O-]
8,1.27,CCCCNC(=O)c1[nH]nc(C)c1[N+](=O)[O-]
9,4.48,CCCCCCCCCCNC(=O)c1[nH]nc(C)c1[N+](=O)[O-]
10,1.81,Cc1n[nH]c(C(=O)Nc2ccccc2)c1[N+](=O)[O-]
11,2.46,CCCCCCNC(=O)c1[nH]nc(C)c1[N+](=O)[O-]

# Reference: the SangsterLogP compilation
